Laboratory results taken from patent US11903981B2, “Use of Anaerofustis stercorihominis in preventing and/or treating metabolic diseases” (priority 2018, dated 2024).
Marks after values point to notes of the source that are not given here.

Tests used:
AM25-6 = test: Antibiotic sensitivity of AM25-6 by the drug sensitive paper method; assay type: cell-based, Anaerofustis stercorihominis; details: antibiotic susceptibility papers on AM25-6 plates, 37° C., 48 hours
Procedure: The sensitivity of AM25-6 to 20 common antibiotics was tested by the drug sensitive paper method. 100 μl of AM25-6 bacterial solution cultured to the logarithmic phase was spread plated. Antibiotic susceptibility papers (purchased from Hangzhou Microbial Reagent Co. LTD) were affixed on the medium surface of plates, cultured at 37° C. for 48 hours, after which the size of inhibition zone was measured.

[1] = tested on: T2D mice model (C57bL/6 mice); test: T2D animal model, oral glucose tolerance test (OGTT); assay type: in vivo
Procedure: (§1) The T2D animal model is constructed by using C57bL/6 mice (purchased from Guangdong Medical Experimental Animal Center) at 8 weeks old and 20±2 g of body weight. The mice were housed in a specific pathogen free (SPF) environment and adaptively fed for 1 week, followed by grouping and modeling. The T2D animal model is induced by injection of streptozotocin (STZ) along with feeding high-fat feed, and the mice having fasting blood glucose (FBG) reaching to 10 mM/L can be used as a T2D mice model. Fifty mice selected for experiments are randomly divided into 5 groups.
(§2) The experiment was carried out based on the different groups. After the construction of T2D mice model (i.e., FBG>10), the treatment was started and lasted for 2 months. The food intake amount and body weight of mice were recorded daily. Blood of mice was collected from the tail vein every week for detection of fasting blood glucose. The oral glucose tolerance test (OGTT) of mice was measured at week 4 of treatment and at the end of the experiment.
The results of oral glucose tolerance test (OGTT) for mice shown in Table 8 indicate that the blood glucose of mice reaches the highest level (i.e., 17.8-23.1 mmol/L) at 30 minutes upon administration of glucose by gavage. […] From the perspective of overall glucose tolerance process, it can be seen that Anaerofustis stercorihominis can effectively ameliorate glucose intolerance in diabetic mice.

[2] = tested on: T2D mice model (C57bL/6 mice); test: T2D animal model, fasting blood glucose; assay type: in vivo
Procedure: as §1
(§3) Bacterial agent group 1: the T2D mice model was administered with the AM25-6 bacterial solution (1×10^8 cfu/ml) by gavage;
(§4) Bacterial agent group 2: the T2D mice model was administered with the DSM 17244 bacterial solution (1×10^8 cfu/ml) by gavage;
(§5) Bacterial agent group 3: the T2D mice model was administered with the DSM 28733 bacterial solution (1×10^8 cfu/ml) by gavage;
(§6) Metformin treatment group: the T2D mice model was treated with the positive drug metformin.
as §2

[3] = tested on: T2D mice model (C57bL/6 mice); test: T2D animal model (STZ plus high-fat feed), body weight; assay type: in vivo; details: gavage
Procedure: as §1, §3, §4, §5, §6, §2

## NCC[C@H](O)C(=O)N[C@@H]1C[C@H](N)[C@@H](O[C@H]2O[C@H](CN)[C@@H](O)[C@H](O)[C@H]2O)[C@H](O)[C@H]1O[C@H]1O[C@H](CO)[C@@H](O)[C@H](N)[C@H]1O [Amikacin]
AM25-6
  Diameter of inhibition zone: 1.5 cm

## CC1(C)S[C@@H]2[C@H](NC(=O)[C@H](N)c3ccccc3)C(=O)N2[C@H]1C(=O)O [Ampicillin]
AM25-6
  Diameter of inhibition zone: >4.0 cm

## CC1(C)S[C@@H]2[C@H](NC(=O)C(C(=O)O)c3ccccc3)C(=O)N2[C@H]1C(=O)O (some centres unmarked) [Carbenicillin]
AM25-6
  Diameter of inhibition zone: >4.0 cm

## CC1=C(C(=O)O)N2C(=O)[C@@H](NC(=O)[C@H](N)c3ccccc3)[C@H]2SC1 [Cefalexin]
AM25-6
  Diameter of inhibition zone: 2.0 cm

## Cc1nnc(SCC2=C(C(=O)O)N3C(=O)[C@@H](NC(=O)Cn4cnnn4)[C@H]3SC2)s1 [Cefazolin]
AM25-6
  Diameter of inhibition zone: 2.6 cm

## CCN1CCN(C(=O)N[C@@H](C(=O)N[C@@H]2C(=O)N3C(C(=O)O)=C(CSc4nnnn4C)CS[C@H]23)c2ccc(O)cc2)C(=O)C1=O [Cefoperazone]
AM25-6
  Diameter of inhibition zone: >4.0 cm

## CC1=C(C(=O)O)N2C(=O)[C@@H](NC(=O)[C@H](N)C3=CCC=CC3)[C@H]2SC1 [Cefradine]
AM25-6
  Diameter of inhibition zone: 2.0 cm

## CO/N=C(\C(=O)N[C@@H]1C(=O)N2C(C(=O)O)=C(CSc3nc(=O)c(=O)[nH]n3C)CS[C@H]12)c1csc(N)n1 [Ceftriaxone Sodium]
AM25-6
  Diameter of inhibition zone: >4.0 cm

## CO/N=C(\C(=O)N[C@@H]1C(=O)N2C(C(=O)O)=C(COC(N)=O)CS[C@H]12)c1ccco1 [Cefuroxime]
AM25-6
  Diameter of inhibition zone: 3.0 cm

## C[C@H]1c2cccc(O)c2C(=O)C2=C(O)[C@]3(O)C(=O)C(C(N)=O)=C(O)[C@@H](N(C)C)[C@@H]3[C@@H](O)[C@@H]21 [Doxycycline]
AM25-6
  Diameter of inhibition zone: 2.0 cm

## CC[C@H]1OC(=O)[C@H](C)[C@@H](O[C@H]2C[C@@](C)(OC)[C@@H](O)[C@H](C)O2)[C@H](C)[C@@H](O[C@@H]2O[C@H](C)C[C@H](N(C)C)[C@H]2O)[C@](C)(O)C[C@@H](C)C(=O)[C@H](C)[C@@H](O)[C@]1(C)O [Erythromycin]
AM25-6
  Diameter of inhibition zone: 2.0 cm

## CC(C)(O/N=C(\C(=O)N[C@@H]1C(=O)N2C(C(=O)[O-])=C(C[n+]3ccccc3)CS[C@H]12)c1csc(N)n1)C(=O)O [Fortum (Ceftazidime), Ceftazidime]
AM25-6
  Diameter of inhibition zone: >4.0 cm

## NC[C@H]1O[C@H](O[C@H]2[C@H](O)[C@@H](O[C@H]3O[C@H](CO)[C@@H](O)[C@H](N)[C@H]3O)[C@H](N)C[C@@H]2N)[C@H](O)[C@@H](O)[C@@H]1O [Kanamycin]
AM25-6
  Diameter of inhibition zone: 1.8 cm

## CN(C)C(=N)N=C(N)N [Metformin, metformin, reference compound]
[1]; 0 minute after glucose by gavage
  Blood glucose in OGTT, 0 minute: 9.3 mmol/L
[1]; 30 minutes after glucose by gavage
  Blood glucose in OGTT, 30 minutes: 18.6 mmol/L
[1]; 60 minutes after glucose by gavage
  Blood glucose in OGTT, 60 minutes: 16.4 mmol/L
[1]; 90 minutes after glucose by gavage
  Blood glucose in OGTT, 90 minutes: 11.7* mmol/L
[1]; 120 minutes after glucose by gavage
  Blood glucose in OGTT, 120 minutes: 10.3 mmol/L
[2]; Week 1
  Fasting blood glucose, Week 1: 16.8 mmol/L
[2]; Week 3
  Fasting blood glucose, Week 3: 16.2 mmol/L
[2]; Week 5
  Fasting blood glucose, Week 5: 13.9 mmol/L
[2]; Week 7
  Fasting blood glucose, Week 7: 11.5* mmol/L
[2]; Week 9
  Fasting blood glucose, Week 9: 10.1** mmol/L
[3]; Week 1
  Body weight: 20.33 g
[3]; Week 3
  Body weight: 22.36 g
[3]; Week 5
  Body weight: 24.63 g
[3]; Week 7
  Body weight: 25.86 g
[3]; Week 9, *P<0.05 relative to model group
  Body weight: 26.53* g

## CN(C)c1ccc(O)c2c1C[C@H]1C[C@H]3[C@H](N(C)C)C(O)=C(C(N)=O)C(=O)[C@@]3(O)C(O)=C1C2=O [Minocin (Minocycline), Minocycline]
AM25-6
  Diameter of inhibition zone: 2.6 cm

## Cc1onc(-c2ccccc2)c1C(=O)N[C@@H]1C(=O)N2[C@@H]1SC(C)(C)[C@@H]2C(=O)O [Oxacillin]
AM25-6
  Diameter of inhibition zone: 1.0 cm

## CCN1CCN(C(=O)N[C@@H](C(=O)N[C@@H]2C(=O)N3[C@@H]2SC(C)(C)[C@@H]3C(=O)O)c2ccccc2)C(=O)C1=O [Piperacillin]
AM25-6
  Diameter of inhibition zone: 3.0 cm

## CN(C)[C@@H]1C(O)=C(C(N)=O)C(=O)[C@@]2(O)C(O)=C3C(=O)c4c(O)cccc4[C@@](C)(O)[C@H]3C[C@@H]12 [Tetracycline]
AM25-6
  Diameter of inhibition zone: 0.9 cm

## Gentamicin
AM25-6
  Diameter of inhibition zone: 2.0 cm

## Neomycin
AM25-6
  Diameter of inhibition zone: 1.0 cm

## Penicillin
AM25-6
  Diameter of inhibition zone: 3.0 cm
